{"source": "paper PMC6361133", "about": "“A chemical-genetics approach to study the role of atypical Protein Kinase C in Drosophila” (Development (Cambridge, England), 2019)", "target": "atypical Protein Kinase C (aPKC), analogue-sensitive aPKC^as4 (Drosophila melanogaster, UniProt A1Z9X0, I342A/T405A)", "sequence (A1Z9X0 whole entry I342A/T405A)": "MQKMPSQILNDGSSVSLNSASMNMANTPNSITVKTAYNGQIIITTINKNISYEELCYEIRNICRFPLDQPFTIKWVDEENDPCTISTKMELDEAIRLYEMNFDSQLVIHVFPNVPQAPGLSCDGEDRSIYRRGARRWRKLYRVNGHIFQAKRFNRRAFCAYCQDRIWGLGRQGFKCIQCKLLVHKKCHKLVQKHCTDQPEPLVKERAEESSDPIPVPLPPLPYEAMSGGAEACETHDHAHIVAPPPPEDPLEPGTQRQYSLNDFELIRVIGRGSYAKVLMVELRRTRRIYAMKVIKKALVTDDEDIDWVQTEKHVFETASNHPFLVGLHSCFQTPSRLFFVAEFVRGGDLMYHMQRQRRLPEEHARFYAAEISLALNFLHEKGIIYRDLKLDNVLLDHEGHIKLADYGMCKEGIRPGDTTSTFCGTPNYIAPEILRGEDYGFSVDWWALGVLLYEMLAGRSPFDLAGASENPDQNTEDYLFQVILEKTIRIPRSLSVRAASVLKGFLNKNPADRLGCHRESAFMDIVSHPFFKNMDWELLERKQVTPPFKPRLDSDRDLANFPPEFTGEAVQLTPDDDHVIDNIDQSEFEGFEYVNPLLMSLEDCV", "test": "in vitro […]-ATP peptide kinase assay with immunoprecipitated FLAG-aPKC ([…] ATP, […] MgCl2)", "type": "biochemical", "data": [{"smiles": "CC(C)(C)n1nc(-c2cccc3ccccc23)c2c(N)ncnc21", "note": "[1NA-PP1]", "values": [{"measurement": "IC50", "value": "~100", "unit": "nM"}]}]}
